Consider 18 molecules from patent publication EP3478687B1 (Daewoong Pharmaceutical Co., Ltd., priority 2016, dated 2018).

Test [1] deals with T1, Recombinant purified human JAK3 (Homo sapiens, UniProt P52333).
T1 construct: purchased Promega V9441
T1 sequence (P52333 1-1124): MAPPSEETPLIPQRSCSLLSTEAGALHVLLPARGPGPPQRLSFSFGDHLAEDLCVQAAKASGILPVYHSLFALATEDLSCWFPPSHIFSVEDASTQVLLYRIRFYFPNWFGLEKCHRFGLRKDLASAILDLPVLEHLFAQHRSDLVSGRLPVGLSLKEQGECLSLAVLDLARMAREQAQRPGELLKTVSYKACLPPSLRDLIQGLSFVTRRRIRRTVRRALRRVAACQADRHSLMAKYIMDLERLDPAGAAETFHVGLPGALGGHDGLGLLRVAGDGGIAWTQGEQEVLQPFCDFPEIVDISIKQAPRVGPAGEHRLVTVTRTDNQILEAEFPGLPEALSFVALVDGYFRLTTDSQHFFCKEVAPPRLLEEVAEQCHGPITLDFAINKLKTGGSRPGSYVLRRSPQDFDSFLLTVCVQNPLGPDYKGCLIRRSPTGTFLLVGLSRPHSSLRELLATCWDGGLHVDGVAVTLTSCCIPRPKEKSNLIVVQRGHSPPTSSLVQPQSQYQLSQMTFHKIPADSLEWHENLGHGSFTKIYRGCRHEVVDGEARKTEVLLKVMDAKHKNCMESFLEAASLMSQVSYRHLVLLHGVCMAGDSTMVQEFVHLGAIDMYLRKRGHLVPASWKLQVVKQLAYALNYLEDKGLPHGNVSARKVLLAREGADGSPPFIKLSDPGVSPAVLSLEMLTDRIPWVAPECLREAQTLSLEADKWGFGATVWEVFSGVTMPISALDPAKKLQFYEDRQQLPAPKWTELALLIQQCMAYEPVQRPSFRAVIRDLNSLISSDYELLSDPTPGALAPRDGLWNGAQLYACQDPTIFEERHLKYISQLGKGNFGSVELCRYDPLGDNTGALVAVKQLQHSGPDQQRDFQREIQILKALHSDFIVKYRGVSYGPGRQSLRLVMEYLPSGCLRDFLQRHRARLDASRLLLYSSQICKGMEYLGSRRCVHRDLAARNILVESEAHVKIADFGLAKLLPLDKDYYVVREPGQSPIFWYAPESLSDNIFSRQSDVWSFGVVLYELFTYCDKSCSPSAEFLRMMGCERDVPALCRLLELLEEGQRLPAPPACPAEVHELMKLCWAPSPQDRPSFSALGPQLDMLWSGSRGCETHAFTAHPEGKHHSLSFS
Nature of the test: JAK3 kinase inhibitory activity, ADP-Glo kinase assay (Promega V9441). It is filed as biochemical. The note with it: for IC50: ATP 5 uM, 4 ng JAK3 per reaction, 1 hour 30 °C, chemiluminescence; for inhibition at 0.1 µM: @100nM compound. The procedure:
(§1) JAK3 and BTK kinase inhibitory activities were measured for the compounds prepared in the above Examples through in vitro analysis on the ADP Glow (Glo) platform.
(§2) Specifically, the inhibitory activities of JAK3 and BTK kinase were measured using a JAK3 kinase assay kit (Promega, V9441) and a BTK kinase assay kit (Promega, V9071) which were purchased from Promega. Recombinant purified human JAK3 and BTK were diluted with 1 x kinase reaction buffer (JAK3: 40 mM Tris-Cl, pH 7.5, 20 mM MgCh, 0.1 mg/mL BSA and 50 uM DTT / BTK: 40 mM Tris-Cl, pH 7.5, 20 mM MgCl2, 0.1 mg/mL BSA, 2 mM MnCl2 and 50 uM DTT) and added to a 96 well plate (JAK3: final concentration of 4 ng per reaction/BTK: final concentration of 8 ng per reaction). The compounds were treated so as to be finally a 1% DMSO aqueous solution, and a substrate cocktail containing ATP (JAK3: final concentration of 5 uM / BTK: final concentration of 10 uM) and 0.2 µg/µL of Poly(Glu4, Tyr1) peptide (JAK3 and BTK final concentration) in the total 25 µL reactants was added to a 96-well plate to initiate enzymatic reaction. After incubation (30 °C) for 1 hour, equivalent volume (25 µL per reaction) of ADP Glo was added and incubated (30 °C) for 40 minutes at room temperature. Then, a kinase detection reagent (50 µL per reaction) was added and incubated (30 °C) for 30 minutes at room temperature. The kinase activity was measured by chemiluminescence according to the instructions of ADP Glo kinase assay kit, and the inhibitory activity of the compounds according to the present invention was calculated. For the analysis of the results of each compound, Microsoft Excel was used, and IC50 values were calculated by SigmaPlot software.

The target in test [2] is T2, Recombinant purified human BTK (Homo sapiens, UniProt Q06187).
T2 construct: purchased Promega V9071
Put plainly: BTK kinase inhibitory activity, ADP-Glo kinase assay (Promega V9071). It counts as biochemical. The following applies: for IC50: ATP 10 uM, 8 ng BTK per reaction, 1 hour 30 °C, chemiluminescence; for inhibition at 0.1 µM: @100nM compound; for inhibition at 1 µM: @1uM compound. The procedure:
as §1, §2
In general terms: ADP-Glo turns the ADP formed in a reaction into a luminescent signal.

The mark [3] stands for this setting: printed in the JAK3 IC50 column.

T2 sequence (Q06187 whole entry): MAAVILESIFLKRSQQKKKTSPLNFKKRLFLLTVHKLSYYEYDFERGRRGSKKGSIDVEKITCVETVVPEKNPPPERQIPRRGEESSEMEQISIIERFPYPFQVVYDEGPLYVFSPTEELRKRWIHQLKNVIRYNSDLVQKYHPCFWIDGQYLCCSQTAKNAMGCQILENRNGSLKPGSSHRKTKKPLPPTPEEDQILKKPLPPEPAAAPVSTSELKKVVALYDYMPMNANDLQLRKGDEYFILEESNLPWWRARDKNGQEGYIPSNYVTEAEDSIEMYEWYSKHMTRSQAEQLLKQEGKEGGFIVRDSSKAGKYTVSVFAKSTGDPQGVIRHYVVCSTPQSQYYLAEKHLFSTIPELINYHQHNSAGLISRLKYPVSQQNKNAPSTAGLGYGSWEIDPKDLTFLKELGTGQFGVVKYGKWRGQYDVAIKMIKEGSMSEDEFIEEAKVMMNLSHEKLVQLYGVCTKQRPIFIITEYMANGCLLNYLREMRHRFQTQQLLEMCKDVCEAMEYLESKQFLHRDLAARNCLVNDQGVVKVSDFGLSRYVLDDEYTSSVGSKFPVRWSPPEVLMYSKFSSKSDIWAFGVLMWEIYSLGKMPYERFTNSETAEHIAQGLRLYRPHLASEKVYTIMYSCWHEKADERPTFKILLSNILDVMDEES

With `C=CC(=O)N1CCC[C@@H](Nc2nc(Nc3cnn(Cc4cccc(OC)c4)c3)nc3[nH]ccc23)C1` [Example 20, (R)-1-(3-(2-(1-(3-methoxybenzyl)-1H-pyrazol-4-ylamino)-7H-pyrrolo[2,3-d]pyrimidin-4-ylamino)piperidin-1-yl)prop-2-en-1-one], the IC50 (as a rule, the concentration at which inhibition is half-maximal) in test [1] turned out to be 0.7 nM; in test [2] it was 9.5 nM.
For `C=CC(=O)N1CCC[C@@H](Nc2nc(Nc3cnn(CC)c3)nc3[nH]ccc23)C1` [Example 21, (R)-1-(3-(2-(1-ethyl-1H-pyrazol-4-ylamino)-7H-pyrrolo[2,3-d]pyrimidin-4-ylamino)piperidin-1-yl)prop-2-en-1-one], the IC50 was found to be 0.4 nM in test [1] and 4.5 nM in test [2].
For the molecule `C=CC(=O)N1CCC[C@@H](Nc2nc(Nc3cn(C)nc3C)nc3[nH]ccc23)C1` [Example 22, (R)-1-(3-(2-(1,3-dimethyl-1H-pyrazol-4-ylamino)-7H-pyrrolo[2,3-d]pyrimidin-4-ylamino)piperidin-1-yl)prop-2-en-1-one], the figures for the inhibition at 0.1 µM in test [1] (setting [3]) and in test [2] were 17.3% and 8.9%, respectively.
As for `C=CC(=O)N1CCC[C@@H](Nc2nc(Nc3cnoc3)nc3[nH]ccc23)C1` [Example 23, (R)-1-(3-(2-(isoxazol-4-ylamino)-7H-pyrrolo[2,3-d]pyrimidin-4-ylamino)piperidin-1-yl)prop-2-en-1-one], the IC50 in test [1] was 0.9 nM; in test [2] it was 13.9 nM.
On the same counts, the results for `C=CC(=O)N1CCC[C@@H](Nc2nc(Nc3cnn(CC(=O)NC)c3)nc3[nH]ccc23)C1` [Example 24, (R)-2-(4-(4-(1-acryloylpiperidin-3-ylamino)-7H-pyrrolo[2,3-d]pyrimidin-2-ylamino)-1H-pyrazol-1-yl)-N-methylacetamide] are 0.4 nM and 15.3 nM.
Consider `CC#CC(=O)N1CCC[C@@H](Nc2nc(Nc3cnn(CC(F)F)c3)nc3[nH]ccc23)C1` [Example 25, (R)-1-(3-(2-(1-(2,2-difluoroethyl)-1H-pyrazol-4-ylamino)-7H-pyrrolo[2,3-d]pyrimidin-4-ylamino)piperidin-1-yl)but-2-yn-1-one], for which the half-inhibitory concentration (IC50) in test [1] was 11.2 nM. In addition, the inhibition (as a rule, the share of the control response that was lost under treatment) at 0.1 µM in test [2] was determined as 39.3%.
Turning to `C=CC(=O)Nc1cccc(Nc2nc(N[C@@H]3CCCN(C(=O)CC#N)C3)c3cc[nH]c3n2)c1` [Example 26, (R)-N-(3-(4-(1-(2-cyanoacetyl)piperidin-3-ylamino)-7H-pyrrolo[2,3-d]pyrimidin-2-ylamino)phenyl)acrylamide], the IC50 in test [1] came out at 39.2 nM. The inhibition at 0.1 µM in test [2] amounted to 10.3%.
`C=CC(=O)N1CC[C@@H](C)[C@@H](N(C)c2nc(Nc3ccc(N4CCN(C)CC4)cc3)nc3[nH]ccc23)C1` [Example 27, 1-((3R,4R)-4-methyl-3-(methyl(2-(4-(4-methylpiperazin-1-yl)phenylamino)-7H-pyrrolo[2,3-d]pyrimidin-4-yl)amino)piperidin-1-yl)prop-2-en-1-one]: the inhibition at 1 µM is 32.8% in test [1] (@1uM compound, printed in the JAK3 IC50 column) and 48% in test [2].
Regarding `C[C@@H]1CCN(C(=O)CC#N)C[C@@H]1N(C)c1nc(Nc2ccc(N3CCN(C)CC3)cc2)nc2[nH]ccc12` [Example 28, 3-((3R,4R)-4-methyl-3-(methyl(2-(4-(4-methylpiperazin-1-yl)phenylamino)-7H-pyrrolo[2,3-d]pyrimidin-4-yl)amino)piperidin-1-yl)-3-oxopropanenitrile], the IC50 in test [1] amounted to 186 nM. Also, the inhibition at 1 µM in test [2] turned out to be 3.3%.
On the same counts, the results for `C=CC(=O)NC1CCCC(Nc2nc(Nc3ccc(N4CCN(C)CC4)cc3)nc3[nH]ccc23)C1` (stereo not drawn) [Example 29, N-(3-(2-(4-(4-methylpiperazin-1-yl)phenylamino)-7H-pyrrolo[2,3-d]pyrimidin-4-ylamino)cyclohexyl)acrylamide] are 66.2 nM and 47.1%.
For the molecule `C=CC(=O)N1CCC[C@@H](Nc2nc(Nc3ccc(N4CCN(C)CC4)cc3)nc3[nH]ncc23)C1` [Example 30, (R)-1-(3-(6-(4-(4-methylpiperazin-1-yl)phenylamino)-1H-pyrazolo [3,4-d]pyrimidin-4-ylamino)piperidin-1-yl)prop-2-en-1-one], in test [1] (setting [3]), the inhibition at 0.1 µM came to 52.6%. In addition, the IC50 in test [2] came to 6 nM.
As to `C=CC(=O)N1CCC[C@@H](Nc2nc(Nc3cnn(CC(F)F)c3)nc3[nH]ncc23)C1` [Example 31, (R)-1-(3-(6-(1-(2,2-difluoroethyl)-1H-pyrazol-4-ylamino)-1H-pyrazolo [3,4-d]pyrimidin-4-ylamino)piperidin-1-yl)prop-2-en-1-one], the IC50 in test [1] came out at 3.4 nM; in test [2], 2.2 nM.
For `C=CC(=O)N1CCC[C@@H](Nc2nc(Nc3cnn(C)c3)nc3[nH]ncc23)C1` [Example 32, (R)-1-(3-(6-(1-methyl-1H-pyrazol-4-ylamino)-1H-pyrazolo[3,4-d]pyrimidin-4-ylamino)piperidin-1-yl)prop-2-en-1-one], in that order: 10.7 nM and 2.8 nM.
On the same counts, the results for `C=CC(=O)N1CCC[C@@H](Nc2nc(Nc3cnn(CC)c3)nc3[nH]ncc23)C1` [Example 33, (R)-1-(3-(6-(1-ethyl-1H-pyrazol-4-ylamino)-1H-pyrazolo[3,4-d]pyrimidin-4-ylamino)piperidin-1-yl)prop-2-en-1-one] are 4.9 nM and 1.6 nM.
For `C=CC(=O)N1CCC[C@@H](Nc2nc(Nc3cnn(C(F)F)c3)nc3[nH]ncc23)C1` [Example 34, (R)-1-(3-(6-(1-(difluoromethyl)-1H-pyrazol-4-ylamino)-1H-pyrazolo [3,4-d]pyrimidin-4-ylamino)piperidin-1-yl)prop-2-en-1-one], in that order: 3.4 nM and 2.1 nM.
Regarding `C=CC(=O)N1CCC[C@@H](Nc2nc(Nc3cnn(CC(=O)NC)c3)nc3[nH]ncc23)C1` [Example 35, (R)-2-(4-(4-(1-acryloylpiperidin-3-ylamino)-1H-pyrazolo[3,4-d]pyrimidin-6-ylamino)-1H-pyrazol-1-yl)-N-methylacetamide], the IC50 was determined as 5.2 nM in test [1] and 2.1 nM in test [2].
For `C=CC(=O)N1CCC[C@@H](Nc2nc(Nc3ccc(N4CCN(C)CC4)cc3)nc3[nH]cc(Cl)c23)C1` [Example 36, (R)-1-(3-(5-chloro-2-(4-(4-methylpiperazin-1-yl)phenylamino)-7H-pyrrolo [2,3-d]pyrimidin-4-ylamino)piperidin-1-yl)prop-2-en-1-one], in that order: 1.1 nM and 16.5 nM.
On the same counts, the results for `C=CC(=O)N1CCC[C@@H](Nc2nc(Nc3cnn(CC)c3)nc3[nH]cc(Cl)c23)C1` [Example 37, (R)-1-(3-(5-chloro-2-(1-ethyl-1H-pyrazol-4-ylamino)-7H-pyrrolo[2,3-d]pyrimidin-4-ylamino)piperidin-1-yl)prop-2-en-1-one] are 0.1 nM and 2.5 nM.
